Molecules are shown by their SMILES. Numbers after ± are expanded uncertainties.

Two compounds from the NIST ThermoML archive (doi:10.1016/j.jct.2015.09.003) can be followed below.

A short description of series [1]: Molar enthalpy of transition or fusion. The conditions noted are these: Crystal; DSC.
For series [2] the following is noted: Crystal; DTA.

As for `CC(C)(C)C1=CC(=O)C(=O)C(C(C)(C)C)=C1` [3,5-di-tert-butyl-o-benzoquinone], the “Molar enthalpy of transition or fusion” value in series [1] turned out to be 6.26 ± 0.141 kcal/mol. Also, the Normal melting temperature in series [2] worked out at 115.4 ± 0.6 °C.

As for `CC(C)(C)C1=CC=C(C(C)(C)C)C(=O)C1=O` [3,6-di-tert-butyl-o-benzoquinone], the “Molar enthalpy of transition or fusion” value in series [1] came out at 6.69 ± 0.151 kcal/mol. Further, the Normal melting temperature in series [2] was found to be 202.2 ± 0.6 °C.
